# Measured values published in patent publication US8742082B2, “Compositions and methods for influencing satiety, lipid metabolism, and fat utilization” (Nestec S.A., priority 2008, dated 2014).
# Experiments:
# Visfatin = test: Real-time PCR gene expression in peripheral tissues: visfatin; assay type: in vivo; conditions: C57bl6j mice, high fat diet, 100 mg/kg/body weight in diet, 5 weeks
# Procedure: (§1) The expression of 45 genes was measured by real-time PCR in peripheral tissues to identify genes that were differentially expressed in response to oral administration of oleoylethanolamide (OEA) or a non-hydrolysable OEA analog (KDS 5104), which affect satiety, lipid metabolism, fat utilization, food intake, and body fat mass.
# Animals, diet, and experimental design. Adult male C57bl6j mice purchased at 8 weeks of age were individually housed and maintained ad libitum on high fat diet and water for 2 weeks. Seven mice were randomly allocated in 3 groups and fed with a high fat diet (lipids represented 50% of daily energy) for 2 weeks. For one kilogram, the composition of the high fat diet was: 235 g casein, 201 g saccharose, 3.5 g L-cystine, 85 g starch, 116 g maltodextrin, 60 g cellulose, 12 g vitamins mix (AIN-93M, UPAE, Jouy-en-Josas, France), 51.5 g mineral mix (AIN-93Vx, UPAE, Jouy-en-Josas, France), and 236 g lard. Then, either OEA or KDS 5104 was added to the diet at a concentration of 100 mg/kg/body weight. The mice were kept under treatment for 5 weeks.
# Sampling. At the end of the experimental period, mice were sacrificed by blood drawing (cardiac puncture) after anesthesia with isoflurane. Plasma was obtained by centrifugation (1,000 g for 10 min at 4° C.). Mesenteric, epididymal, inguinal and peritoneal adipose depots, as well as liver, stomach, small intestine mucosa, pancreas, and gastrocnemian muscle were removed and frozen into liquid nitrogen. Plasma, urine, feces, and organ samples were kept at −80° C. until analysis.
# (§2) RNA extraction and gene expression. Total RNA from liver, intestine mucous membrane, adipose tissues, gastrocnemian muscle, pancreas and stomach were extracted with TRIzol reagent (Invitrogen, Carlsbad, USA) according to the manufacturer's instruction. The RNA concentration was determined on nanodrop from the absorbance at 260 nm. […] Real-time quantitative PCR (RT-qPCR) were performed on cDNA obtained as described above using a high through put system (Biomek 3000, Beckman & Coulter, Fullerton, USA) and a Lightcycler 480 (Roche/Hitachi, Basel, Switzerland) with SYBR Green Master mix+kit (Eurogentec, Philadelphia, USA). […] Values were expressed as ratio of RNA levels relative to control mice (diets with 0 mg of OEA/kg/body weight) using ΔΔ(Ct) (Livak K J & Schmittgen T D, 2001, Methods 25:402-8). Gene expression of the following genes was measured (abbreviation and GenBank Accession shown in parentheses).
# Statistical analysis. […] Daily food intake was analyzed using two-way ANOVA on Statview software. […] For statistical analysis of the gene expression data, values were calculated relative to 18S expression for each mouse and gene.
# Ghrelin = test: Real-time PCR gene expression in peripheral tissues: ghrelin; assay type: in vivo; conditions: stomach; C57bl6j mice, high fat diet, 100 mg/kg/body weight in diet, 5 weeks
# Procedure: as §1
# Animals, diet, and experimental design. Adult male C57bl6j mice purchased at 8 weeks of age were individually housed and maintained ad libitum on high fat diet and water for 2 weeks. Seven mice were randomly allocated in 3 groups and fed with a high fat diet (lipids represented 50% of daily energy) for 2 weeks. […]
# as §2, with “Total RNA from liver, intestine mucous membrane, adipose tissues, gastrocnemian muscle, pancreas and stomach were extracted with TRIzol reagent (Invitrogen, Carlsbad, USA) according to the manufacturer's instruction.” left out, “parentheses). […]” for “parentheses).”
smiles,measurement,setting,value
"CCCCCCCC/C=C\CCCCCCCC(=O)NCCO [OEA, N-oleoyl-ethanolamide]","visfatin at ep, ratio of RNA levels relative to control mice",Visfatin; epidydimal adipose tissue,−1.55
same,"visfatin at per, ratio of RNA levels relative to control mice",Visfatin; peritoneal adipose tissue,−1.80
same,"ghrelin s, ratio of RNA levels relative to control mice",Ghrelin,1.98
